Among the data in US10407431B2, “Compounds and compositions as toll-like receptor 7 agonists” (NOVARTIS AG, priority 2014, dated 2019) are EC50 values, retold here.

Chain of human TLR7 (Q9NYK1 27-1049): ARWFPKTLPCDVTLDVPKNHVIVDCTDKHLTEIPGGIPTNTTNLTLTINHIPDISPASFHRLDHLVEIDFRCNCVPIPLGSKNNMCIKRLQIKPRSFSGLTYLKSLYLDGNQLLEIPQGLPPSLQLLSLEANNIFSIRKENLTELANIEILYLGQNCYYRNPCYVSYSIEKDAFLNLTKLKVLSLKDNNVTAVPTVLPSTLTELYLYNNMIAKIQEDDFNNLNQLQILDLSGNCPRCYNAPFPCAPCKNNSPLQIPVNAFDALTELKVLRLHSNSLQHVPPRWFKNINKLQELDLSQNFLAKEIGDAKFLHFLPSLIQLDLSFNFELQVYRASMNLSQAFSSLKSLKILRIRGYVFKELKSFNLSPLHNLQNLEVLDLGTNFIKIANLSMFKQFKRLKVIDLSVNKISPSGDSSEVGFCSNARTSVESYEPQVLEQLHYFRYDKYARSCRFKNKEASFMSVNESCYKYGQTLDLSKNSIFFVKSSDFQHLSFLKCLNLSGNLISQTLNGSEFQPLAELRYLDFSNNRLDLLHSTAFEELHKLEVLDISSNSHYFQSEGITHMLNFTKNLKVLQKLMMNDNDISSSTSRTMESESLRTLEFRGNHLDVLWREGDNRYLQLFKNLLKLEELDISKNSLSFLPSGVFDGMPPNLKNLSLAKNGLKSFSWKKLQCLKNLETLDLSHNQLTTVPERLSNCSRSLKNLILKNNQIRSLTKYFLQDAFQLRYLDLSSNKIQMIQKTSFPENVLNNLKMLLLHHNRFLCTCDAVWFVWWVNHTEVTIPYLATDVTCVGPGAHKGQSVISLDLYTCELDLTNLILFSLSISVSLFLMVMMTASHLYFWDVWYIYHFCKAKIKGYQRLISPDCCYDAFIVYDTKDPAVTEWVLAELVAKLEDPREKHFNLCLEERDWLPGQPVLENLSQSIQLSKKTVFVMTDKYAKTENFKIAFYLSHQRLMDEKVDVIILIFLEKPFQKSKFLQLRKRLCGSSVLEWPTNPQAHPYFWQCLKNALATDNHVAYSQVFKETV

This test has as its target human TLR7 (Homo sapiens (Human), UniProt Q9NYK1). In words: Reporter Gene Assay (HEK293 stably transfected with human TLR7 and NF-kB-driven luciferase reporter). Type of test: cell-based. Particulars: HEK293 cells stably transfected with human TLR7 and pNifty-Luciferase; 7 hours incubation; EC50 relative to the activity of resiquimod set to 100%. As to the method:
As a control assay, normal Hek293 transfected with pNifty-Luc were used. […] Bright-Glo™ Luciferase assay buffer and substrate were supplied by Promega #E263B and #E264B (assay substrate and buffer respectively). 384 well clear-bottom plates were supplied by Greiner bio-one (#789163-G) and were custom bar-coded plates.
Cells were plated at 25,000 cells/well in 384-well plates in a final volume of 50 μl of media. Cells were allowed to adhere to the plates after overnight (18 hours) culture at 37° C. and 5% CO2. Serially diluted experimental and positive control compounds were then dispensed to each well and incubated for 7 hours at 37° C. and 5% CO2. Cells stimulated with DMSO alone also serve as negative controls. After the incubation, 30 μl of the pre-mix assay buffer and substrate buffer were added to each well according to manufacturer's instructions. The luminescence signal was read on a CLIPR machine with an integration time of 20 seconds per plate.
A general note: Reporter assays use an easily measured gene product as a stand-in for the process of interest.
As to `CCCCCNc1nc(N)nc2ccn(Cc3cc(OCC(=O)OCCN4CCN(C)CC4)ccc3OC)c12` [Example 29, 2-(4-methylpiperazin-1-yl)ethyl 2-(3-{[2-amino-4-(pentylamino)-5H-pyrrolo[3,2-d]pyrimidin-5-yl]methyl}-4-methoxyphenoxy)acetate], the EC50 stood at 0.2 µM.

With `CCCCCNc1nc(N)nc2ccn(Cc3ccc(CN4CCNCC4)cc3OC)c12` [Example 32, 5-(2-methoxy-4-(piperazin-1-ylmethyl)benzyl)-N4-pentyl-5H-pyrrolo[3,2-d]pyrimidine-2,4-diamine], the concentration for a half-maximal effect (EC50) is less than 0.005 µM.

For the molecule `CCCCCNc1nc(N)nc2ccn(Cc3ccc(CC(=O)OCC(=O)N(C)C)cc3OC)c12` [Example 20, 2-(dimethylamino)-2-oxoethyl 2-(4-((2-amino-4-(pentylamino)-5H-pyrrolo[3,2-d]pyrimidin-5-yl)methyl)-3-methoxyphenyl)acetate], the half-maximal effective concentration (EC50) came out at 0.08 µM.

By EC50 is commonly meant the concentration giving half of the maximal effect. A low value points to higher potency in that assay.
